Measured values published in US20240398821A1, “FLAVONOID DERIVATIVES WITH GABAA RECEPTOR ACTIVITY AND METHODS OF USE” (RUTGERS, THE STATE UNIVERSITY OF NEW JERSEY, priority 2021, published 2024).

How the values were obtained:
Type in all cases: cell-based
GABAA α5θ3γ2L = target: T1, GABAA α5θ3γ2L (Homo sapiens, UniProt P18507+P28472+P31644); assay: SyncroPatch automated patch-clamp electrophysiology, PAM mode; settings: PAM mode, GABA EC10-20, 6-point curve up to 10 μM
T1 construct: expressed in transfected cells
Procedure: (§1) To evaluate GABAA receptor activity, compounds were evaluated with electrophysiology studies of against 4 GABAA subtypes (GABAA α1β2γ2L, α2θ3γ2L, α5θ3γ2L and α4θ3δ) in positive allosteric modulator (PAM) mode using the SyncroPatch automated platform at room temperature. A 6-point concentration-response curve of each test compound (10, 1, 0.1, 0.01, 0.001, or 0.0001 μM in DMSO). The rapid addition protocol was used, in which compound is rapidly applied and then washed off from the cell. 0.3% DMSO was used as negative control.
(§2) Test compounds: 6-point concentration-response curve of each test compound (10, 1, 0.1, 0.01, 0.001, 0.0001 μM in DMO).
(§3) Positive control: 5-point concentration-response curve of allopregnanolone ([…]).
(§4) Negative control: 0.3% DMSO
(§5) Each compound is tested across the plate with a single concentration per cell. A minimum of 2 wells are obtained per each concentration.
(§6) Powder stocks and DMSO stocks are stored at room temperature (in the dark). The powder stocks are diluted to 3 mM in 100% DMSO on the day of experiment.
(§7) SyncroPatch specific solutions are used throughout the assay. DMSO remains constant at 0.3% in the external solution throughout the assay.
(§8) The rapid addition protocol is used, in which compound is rapidly applied and then washed off from the cell. To test for PAM activity, the agonist GABA EC10-20 is applied three times (with wash steps in-between) as a control and to show activation reproducibility, followed by a 1 to 2 minute pre-incubation of client compound and then re-application of GABA EC10-20 in the presence of client compound. After a further wash step, maximum GABA (10 mM) is applied.
(§9) Automated patch clamp-recordings are performed using the SyncroPatch 384i. The voltage protocol generation and data collection are performed with PatchController384 V1.9.0 and Data Controller V1.9.0.
(§10) The fold increase is generated using the following equation, (Icomp/Icontrol)−1, where Icomp is the current amplitude in the presence of the compound and Icontrol is the current amplitude in the presence of agonist alone. This builds an EC50 concentration-response curve, where 0 represents no PAM activity and >0 represents PAM activity. […] The % Emax relative to Allopregnanolone is generated using the following equation, • [(IMaxComp/IAveMaxCtrl)*100], where IMaxComp is the individual maximum fold increase in current for each compound and IAveMaxCtrl is the average maximum fold increase generated in the presence of the control, allopregnanolone.
(§11) To test for PAM activity, the agonist GABA EC 10-20 was applied three times (with wash steps in-between) as a control and to show activation reproducibility, followed by a 1 to 2 minutes pre-incubation of client compound and then re-application of GABA EC 10-20 in the presence of client compound. After a further wash step, maximum GABA (10 mM) was applied. Allopregnanolone was utilized as a positive control. FIGS. 5A and 5B show for dose response of EC2-118 in comparison to that of allopregnanolone (positive control).

GABAA α2θ3γ2L = target: T2, GABAA α2θ3γ2L (Homo sapiens, UniProt P18507+P28472+P47869); assay: as above
T2 construct: expressed in transfected cells
Procedure: as §1, §2, §3, §4, §5, §6, §7, §8, §9, §10, §11

GABAA receptor = assay: Preliminary classification of GABAAR modulation from electrophysiology against 4 GABAA subtypes; settings: from the four subtype results
Source text: As an assessment for potential anxiolytic activity, compounds were screened for in vitro GABAA receptor activity utilizing electrophysiology studies. This is a well-established method of assessing activity of GABAA receptor positive allosteric modulators (PAMs) with known anxiolytic activity. The link between anxiolytic and sedative activity associated with α1/2/3βγ GABAAR subtypes is also well-established by previous studies. and there is a well-established history of clinical efficacy, utility, and risks associated with the use of full GABAAR PAMs [i.e. benzodiazepines (BZDs)] in the treatment of anxiety and seizure disorders.
as §1
The fold increase is generated using the following equation, (Icomp/Icontrol)−1, where Icomp is the current amplitude in the presence of the compound and Icontrol is the current amplitude in the presence of agonist alone. This builds an EC50 concentration-response curve, where 0 represents no PAM activity and >0 represents PAM activity. If a “bell-shape curve” is observed at the higher concentrations, showing a reduction in activity in comparison to previous concentrations, then to allow for a more accurate curve fit, these concentrations are removed from the graphs where necessary and noted in the compound table. The % Emax relative to Allopregnanolone is generated using the following equation, • [(IMaxComp/IAveMaxCtrl)*100], where IMaxComp is the individual maximum fold increase in current for each compound and IAveMaxCtrl is the average maximum fold increase generated in the presence of the control, allopregnanolone.

GABAA α1β2γ2L = target: T3, GABAA α1β2γ2L (Homo sapiens, UniProt P14867+P18507+P47870); assay: SyncroPatch automated patch-clamp electrophysiology, PAM mode; settings: PAM mode, GABA EC10-20, 6-point curve up to 10 μM; EC50 called extrapolated
T3 construct: expressed in transfected cells
Procedure: as §1, with “A 6-point concentration-response curve of each test compound (10, 1, 0.1, 0.01, 0.001, or 0.0001 μM in DMSO).” left out
as §3, §4, §5, §6, §7
(§12) The rapid addition protocol is used, in which compound is rapidly applied and then washed off from the cell. […] After a further wash step, maximum GABA (10 mM) is applied.
(§13) The voltage protocol generation and data collection are performed with PatchController384 V1.9.0 and Data Controller V1.9.0.
as §10, with “alone.” for “alone. This builds an EC50 concentration-response curve, where 0 represents no PAM activity and >0 represents PAM activity.”
(§14) After a further wash step, maximum GABA (10 mM) was applied. Allopregnanolone was utilized as a positive control.

GABAA α4θ3δ = target: T4, GABAA α4θ3δ (Homo sapiens, UniProt O14764+P28472+P48169); assay: as above
T4 construct: expressed in transfected cells
Procedure: as §1, with “A 6-point concentration-response curve of each test compound (10, 1, 0.1, 0.01, 0.001, or 0.0001 μM in DMSO).” left out
as §3, §4, §5, §6, §7, §12, §13
as §10, with “alone.” for “alone. This builds an EC50 concentration-response curve, where 0 represents no PAM activity and >0 represents PAM activity.”
as §14

[1] = PAM mode, GABA EC10-20, 6-point curve up to 10 μM, EC50 called extrapolated
[2] = PAM mode, GABA EC10-20, 6-point curve up to 10 μM

T1 sequence (P31644 32-462): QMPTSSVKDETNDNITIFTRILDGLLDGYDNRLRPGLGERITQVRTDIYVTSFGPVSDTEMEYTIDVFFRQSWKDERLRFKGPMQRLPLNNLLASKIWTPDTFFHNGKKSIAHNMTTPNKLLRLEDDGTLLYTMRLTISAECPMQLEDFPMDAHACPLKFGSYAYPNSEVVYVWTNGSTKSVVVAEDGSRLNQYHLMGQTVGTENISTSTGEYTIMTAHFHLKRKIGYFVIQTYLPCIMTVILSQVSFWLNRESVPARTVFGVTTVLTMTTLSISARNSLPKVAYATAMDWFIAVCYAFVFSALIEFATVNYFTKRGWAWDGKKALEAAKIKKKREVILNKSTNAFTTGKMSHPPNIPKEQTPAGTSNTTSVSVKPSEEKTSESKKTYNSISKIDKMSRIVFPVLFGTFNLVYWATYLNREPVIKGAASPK
T1 sequence (P28472 26-473): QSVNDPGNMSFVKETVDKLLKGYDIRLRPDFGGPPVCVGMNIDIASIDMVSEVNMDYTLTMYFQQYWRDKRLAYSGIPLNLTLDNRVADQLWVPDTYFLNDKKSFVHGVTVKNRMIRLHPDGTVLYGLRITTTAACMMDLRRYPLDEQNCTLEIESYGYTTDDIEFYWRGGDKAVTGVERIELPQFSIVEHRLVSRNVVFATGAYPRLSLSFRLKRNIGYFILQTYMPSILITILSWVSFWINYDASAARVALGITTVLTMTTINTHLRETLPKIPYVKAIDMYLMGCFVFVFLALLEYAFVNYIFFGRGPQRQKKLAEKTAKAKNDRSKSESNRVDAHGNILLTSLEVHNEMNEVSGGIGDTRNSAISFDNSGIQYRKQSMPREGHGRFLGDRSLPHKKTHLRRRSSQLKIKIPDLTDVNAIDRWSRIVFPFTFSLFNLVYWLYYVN
T1 sequence (P18507 40-475): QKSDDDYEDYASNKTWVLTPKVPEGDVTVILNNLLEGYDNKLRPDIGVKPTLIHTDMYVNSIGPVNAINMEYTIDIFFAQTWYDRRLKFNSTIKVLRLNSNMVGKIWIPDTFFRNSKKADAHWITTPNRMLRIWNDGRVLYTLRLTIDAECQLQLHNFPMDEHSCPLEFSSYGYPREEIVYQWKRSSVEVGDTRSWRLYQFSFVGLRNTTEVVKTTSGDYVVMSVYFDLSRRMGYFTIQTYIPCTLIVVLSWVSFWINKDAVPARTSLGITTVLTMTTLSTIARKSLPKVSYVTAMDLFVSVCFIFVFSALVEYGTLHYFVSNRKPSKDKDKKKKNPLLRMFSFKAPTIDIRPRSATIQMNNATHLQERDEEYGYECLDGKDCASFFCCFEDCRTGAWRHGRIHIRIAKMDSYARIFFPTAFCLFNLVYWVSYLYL
T4 sequence (P48169 36-554): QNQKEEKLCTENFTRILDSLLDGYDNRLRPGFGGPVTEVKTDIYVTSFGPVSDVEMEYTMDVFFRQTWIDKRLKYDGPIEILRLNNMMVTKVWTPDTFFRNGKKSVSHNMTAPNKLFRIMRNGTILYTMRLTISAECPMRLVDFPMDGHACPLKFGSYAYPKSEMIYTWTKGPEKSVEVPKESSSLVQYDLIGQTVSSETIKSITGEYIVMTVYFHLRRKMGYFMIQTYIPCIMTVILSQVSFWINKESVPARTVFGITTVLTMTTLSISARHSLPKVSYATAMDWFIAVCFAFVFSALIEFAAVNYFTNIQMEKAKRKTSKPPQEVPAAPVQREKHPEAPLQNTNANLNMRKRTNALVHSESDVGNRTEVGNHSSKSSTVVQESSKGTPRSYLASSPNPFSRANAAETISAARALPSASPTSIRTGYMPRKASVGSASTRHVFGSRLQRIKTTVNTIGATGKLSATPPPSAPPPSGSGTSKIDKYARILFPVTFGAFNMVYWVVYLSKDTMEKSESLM
T4 sequence (P28472 26-473): as the sequence (P28472 26-473) above
T4 sequence (O14764 17-452 limits assumed): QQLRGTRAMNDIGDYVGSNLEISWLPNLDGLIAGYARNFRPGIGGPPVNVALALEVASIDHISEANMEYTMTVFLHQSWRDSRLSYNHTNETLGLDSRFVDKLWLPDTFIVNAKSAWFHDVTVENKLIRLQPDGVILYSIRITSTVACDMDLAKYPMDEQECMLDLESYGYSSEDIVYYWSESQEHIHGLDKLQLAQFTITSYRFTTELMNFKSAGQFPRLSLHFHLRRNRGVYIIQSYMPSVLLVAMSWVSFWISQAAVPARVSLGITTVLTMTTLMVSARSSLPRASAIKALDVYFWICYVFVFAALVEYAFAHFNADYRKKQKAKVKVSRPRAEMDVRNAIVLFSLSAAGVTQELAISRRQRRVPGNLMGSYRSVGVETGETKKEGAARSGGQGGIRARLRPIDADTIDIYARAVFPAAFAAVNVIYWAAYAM
T2 sequence (P47869 29-451): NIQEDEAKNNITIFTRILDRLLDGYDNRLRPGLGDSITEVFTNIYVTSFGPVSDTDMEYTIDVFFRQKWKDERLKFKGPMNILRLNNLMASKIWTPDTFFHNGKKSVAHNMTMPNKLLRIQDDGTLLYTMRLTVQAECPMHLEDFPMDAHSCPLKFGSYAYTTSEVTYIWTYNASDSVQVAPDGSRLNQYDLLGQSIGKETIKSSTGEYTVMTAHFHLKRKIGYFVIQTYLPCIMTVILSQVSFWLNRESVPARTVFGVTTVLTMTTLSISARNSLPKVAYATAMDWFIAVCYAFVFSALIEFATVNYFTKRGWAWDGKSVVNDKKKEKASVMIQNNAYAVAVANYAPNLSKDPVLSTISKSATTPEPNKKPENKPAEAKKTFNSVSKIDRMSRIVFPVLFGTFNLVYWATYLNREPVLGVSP
T2 sequence (P28472 26-473): as the sequence (P28472 26-473) above
T2 sequence (P18507 40-475): as the sequence (P18507 40-475) above
T3 sequence (P14867 28-456): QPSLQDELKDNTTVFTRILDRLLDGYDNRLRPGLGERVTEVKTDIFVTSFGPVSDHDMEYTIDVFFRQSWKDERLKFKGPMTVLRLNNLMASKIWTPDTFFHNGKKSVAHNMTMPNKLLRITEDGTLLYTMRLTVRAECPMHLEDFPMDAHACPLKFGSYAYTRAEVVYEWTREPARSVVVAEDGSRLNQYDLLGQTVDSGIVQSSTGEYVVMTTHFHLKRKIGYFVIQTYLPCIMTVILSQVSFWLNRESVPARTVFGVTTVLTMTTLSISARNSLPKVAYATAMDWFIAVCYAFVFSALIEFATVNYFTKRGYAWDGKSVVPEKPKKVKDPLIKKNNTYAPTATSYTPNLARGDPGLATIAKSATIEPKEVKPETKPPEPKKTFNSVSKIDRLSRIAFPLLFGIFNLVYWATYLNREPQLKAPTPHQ
T3 sequence (P47870 25-512 limits assumed): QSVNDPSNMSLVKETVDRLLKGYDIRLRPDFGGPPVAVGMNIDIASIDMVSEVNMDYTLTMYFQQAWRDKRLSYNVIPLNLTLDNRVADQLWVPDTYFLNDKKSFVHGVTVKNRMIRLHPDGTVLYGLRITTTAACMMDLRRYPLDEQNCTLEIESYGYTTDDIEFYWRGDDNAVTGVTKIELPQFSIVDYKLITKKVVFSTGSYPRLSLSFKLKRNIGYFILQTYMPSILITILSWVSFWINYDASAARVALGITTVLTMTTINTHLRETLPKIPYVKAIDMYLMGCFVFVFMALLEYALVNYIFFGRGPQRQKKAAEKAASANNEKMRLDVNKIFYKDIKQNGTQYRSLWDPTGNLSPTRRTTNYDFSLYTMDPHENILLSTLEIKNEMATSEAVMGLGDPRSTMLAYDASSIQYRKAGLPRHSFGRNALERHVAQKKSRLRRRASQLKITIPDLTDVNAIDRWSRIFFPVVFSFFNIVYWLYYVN
T3 sequence (P18507 40-475): as the sequence (P18507 40-475) above

| EC50 (GABAA α2θ3γ2L; PAM mode, GABA EC10-20, 6-point curve up to 10 μM, EC50 called extrapolated, read-out: Potency, α2βy, *EC50) | Potency, α2βy, % in brackets (GABAA α2θ3γ2L; bracketed % beside EC50/IC50) | EC50 (GABAA α4θ3δ; PAM mode, GABA EC10-20, 6-point curve up to 10 μM, read-out: Potency, α4βδ (also printed α4βy), *EC50) | Potency, α4βδ (also printed α4βy), % in brackets (GABAA α4θ3δ; bracketed % beside EC50/IC50) | SMILES | Potency, α5βy, *EC50 (GABAA α5θ3γ2L) | Potency, α2βy, *EC50 (GABAA α2θ3γ2L; [1]) | Preliminary Classification of type of GABAAR modulation (GABAA receptor) | Potency, α1βy, *EC50 (GABAA α1β2γ2L) | Potency, α4βδ (also printed α4βy), *EC50 (GABAA α4θ3δ; [2]) |
| --- | --- | --- | --- | --- | --- | --- | --- | --- | --- |
| – | – | – | – | O=C1NC(c2cccc([N+](=O)[O-])c2)Nc2ccc(Br)cc21 (centres unmarked) [EC2-117, 6-bromo-2-(3-nitrophenyl)-2,3-dihydroquinazolin-4(1H)-one] | α1 βy (N.R.) α2βy (N.R.) α5βy (N.R.) α4ßy (N.R.) | α1 βy (N.R.) α2βy (N.R.) α5βy (N.R.) α4ßy (N.R.) | Not active | α1 βy (N.R.) α2βy (N.R.) α5βy (N.R.) α4ßy (N.R.) | α1 βy (N.R.) α2βy (N.R.) α5βy (N.R.) α4ßy (N.R.) |
| 11.8 µM | +28% | > 10 µM | +30% | O=C1c2ccccc2OC(c2cccc([N+](=O)[O-])c2)C1(CO)CO (centres unmarked) [EC2-104, 3,3-bis(hydroxymethyl)-2-(3-nitrophenyl)chroman-4-one] | N.R. | – | Partial α2 GABAAR PAM | N.R. | – |
| – | – | – | – | O=C1c2cc(Br)ccc2OC(c2cccc([N+](=O)[O-])c2)C1(CO)CO (centres unmarked) [EC2-124] | α1ßy (N.R.) α2βy (N.R.) α5βy (N.R.) α4βy (N.R.) | α1ßy (N.R.) α2βy (N.R.) α5βy (N.R.) α4βy (N.R.) | Not Active | α1ßy (N.R.) α2βy (N.R.) α5βy (N.R.) α4βy (N.R.) | α1ßy (N.R.) α2βy (N.R.) α5βy (N.R.) α4βy (N.R.) |
